# Reference: ChEMBL document CHEMBL6114979, “Discovery of 3-indolylbenzoquinone derivatives with therapeutic potential for breast cancer” (Bioorg Med Chem, 2025)
# Counter-ions that a name gives are not always drawn.
# Assays:
# [1] = system: HepG2; experiment: Antiproliferative activity against human HepG2 cells assessed as inhibition of cell proliferation incubated for 48 hrs by CCK-8 assay; type: functional, cell-based; conditions: HepG2, 48 h
# [2] = system: MDA-MB-231; experiment: Antiproliferative activity against human MDA-MB-231 cells assessed as inhibition of cell proliferation incubated for 48 hrs by CCK-8 assay; type: functional, cell-based; conditions: MDA-MB-231, 48 h
# [3] = system: A549; experiment: Antiproliferative activity against human A549 cells assessed as inhibition of cell proliferation incubated for 48 hrs by CCK-8 assay; type: functional, cell-based; conditions: A549, 48 h
# [4] = Solubility of compound in 0.1 M HCL; type: physicochemical
# [5] = Solubility of compound in water; type: physicochemical
# [6] = Toxicity in female Balb/c mouse implanted with mouse 4T1 cells assessed as appearance of tumor metastasis in kidney at 10 mg/kg, ip administered once every 2 days for 14 days by H and E staining based analysis; type: organism-based; conditions: in vivo, 336 h, time 14 day
# [7] = Toxicity in female Balb/c mouse implanted with mouse 4T1 cells assessed as appearance of tumor metastasis in spleen at 10 mg/kg, ip administered once every 2 days for 14 days by H and E staining based analysis; type: organism-based; conditions: in vivo, 336 h, time 14 day
# [8] = Toxicity in female Balb/c mouse implanted with mouse 4T1 cells assessed as appearance of tumor metastasis in liver at 10 mg/kg, ip administered once every 2 days for 14 days by H and E staining based analysis; type: organism-based; conditions: in vivo, 336 h, time 14 day
# [9] = Toxicity in female Balb/c mouse implanted with mouse 4T1 cells assessed as appearance of spleen wrinkling at 10 mg/kg, ip administered once every 2 days for 14 days; type: organism-based; conditions: in vivo, 48 h, time 2 day
# [10] = Toxicity in female Balb/c mouse implanted with mouse 4T1 cells assessed as appearance of tumor metastasis in lung at 10 mg/kg, ip administered once every 2 days for 14 days by H and E staining based analysis; type: organism-based; conditions: in vivo, 336 h, time 14 day
# [11] = Toxicity in female Balb/c mouse implanted with mouse 4T1 cells assessed as appearance of irregular necrotic foci in tumor area at 10 mg/kg, ip administered once every 2 days for 14 days by H and E staining based analysis; type: organism-based; conditions: in vivo, 336 h, time 14 day
# [12] = Toxicity in female Balb/c mouse implanted with mouse 4T1 cells assessed as change in body weight at 10 mg/kg, ip administered every 2 days; type: organism-based; conditions: in vivo, 48 h
# [13] = Toxicity in female Balb/c mouse implanted with mouse 4T1 cells assessed as appearance of infiltered tumor cells in adipose tissue at 10 mg/kg, ip administered once every 2 days for 14 days by H and E staining based analysis; type: organism-based; conditions: in vivo, 336 h, time 14 day
# [14] = system: MDA-MB-231; experiment: Induction of apoptosis in human MDA-MB-231 cells assessed as necrotic cells at 1 uM incubated for 24 hrs by Annexin-V/PI staining based flow cytometric analysis (reference value: 0.71%); type: functional
# [15] = system: MDA-MB-231; experiment: Induction of apoptosis in human MDA-MB-231 cells assessed as early apoptotic cells at 1 uM incubated for 24 hrs by Annexin-V/PI staining based flow cytometric analysis (reference value: 2.69%); type: functional
# [16] = system: MDA-MB-231; experiment: Induction of apoptosis in human MDA-MB-231 cells assessed as viable cells at 1 uM incubated for 24 hrs by Annexin-V/PI staining based flow cytometric analysis (reference value: 93.37%); type: functional; conditions: read-out: Activity
# [17] = system: MDA-MB-231; experiment: Induction of cell cycle arrest in human MDA-MB-231 cells assessed as accumulation of cells at S phase at 1 uM incubated for 24 hrs by PI staining based flow cytometric analysis (reference value: 8.71%); type: functional
# [18] = system: MDA-MB-231; experiment: Induction of cell cycle arrest in human MDA-MB-231 cells assessed as accumulation of cells at G0/G1 phase at 1 uM incubated for 24 hrs by PI staining based flow cytometric analysis (reference value: 57.31%); type: functional
# [19] = system: MDA-MB-231; experiment: Induction of apoptosis in human MDA-MB-231 cells assessed as late apoptotic cells at 1 uM incubated for 24 hrs by Annexin-V/PI staining based flow cytometric analysis (reference value: 3.24%); type: functional
# [20] = system: MDA-MB-231; experiment: Induction of cell cycle arrest in human MDA-MB-231 cells assessed as accumulation of cells at G2/M phase at 1 uM incubated for 24 hrs by PI staining based flow cytometric analysis (reference value: 33.98%); type: functional
Structure (SMILES),IC50 [1],IC50 [2],IC50 [3],other results
Cc1[nH]c2ccccc2c1C1=C(NCCNC(=O)OC(C)(C)C)C(=O)C(F)=C(NCCNC(=O)OC(C)(C)C)C1=O,13.1 µM,10.2 µM,13.8 µM,
Cc1[nH]c2ccccc2c1C1=C(Cl)C(=O)C(Cl)=C(N2CCOCC2)C1=O,,,,solubility [4]: 6 µg/mL; solubility [5]: 9 µg/mL
Cc1[nH]c2ccccc2c1C1=C(F)C(=O)C(F)=C(N2CCN(C=O)CC2)C1=O,5.43 µM,8 µM,53.1 µM,
Cc1[nH]c2ccccc2c1C1=C(N2CCOCC2)C(=O)C(F)=C(N2CCOCC2)C1=O,16.1 µM,8.16 µM,15.4 µM,
Cc1[nH]c2ccccc2c1C1=C(F)C(=O)C(F)=C(N2CCCCC2)C1=O,14.5 µM,8.26 µM,32.9 µM,
COc1cccc2c1C(=O)c1c(O)c3c(c(O)c1C2=O)C[C@@](O)(C(=O)CO)C[C@@H]3O[C@H]1C[C@H](N)[C@H](O)[C@H](C)O1 [DOXORUBICIN HYDROCHLORIDE],,2.34 µM,0.3 µM,Activity [6]: Toxic; Activity [7]: Toxic; Activity [8]: Toxic; Activity [9]: Toxic; Activity [10]: Toxic; Activity [11]: Toxic; Activity [12]: Toxic; Activity [13]: Toxic
Cc1[nH]c2ccccc2c1C1=C(F)C(=O)C(c2c(C)[nH]c3ccccc23)=C(F)C1=O,11.3 µM,10.8 µM,15.7 µM,
COC(=O)/C=C/C(=O)OCCCN1CCN(C2=C(F)C(=O)C(F)=C(c3c(C)[nH]c4ccccc34)C2=O)CC1,4.6 µM,6.97 µM,6.79 µM,
COC(=O)/C=C/C(=O)OCCNC1=C(F)C(=O)C(c2c(C)[nH]c3ccccc23)=C(F)C1=O,25 µM,6.47 µM,6.31 µM,
COC(=O)/C=C/OCCNC1=C(F)C(=O)C(c2c(C)[nH]c3ccccc23)=C(NCCOC(=O)/C=C/C(=O)OC)C1=O,4.44 µM,12 µM,7.02 µM,
Cc1[nH]c2ccccc2c1C1=C(NC2CC2)C(=O)C(F)=C(NC2CC2)C1=O,4.19 µM,5.49 µM,4.93 µM,
Cc1[nH]c2ccccc2c1C1=C(F)C(=O)C(F)=C(NCCNC(=O)OC(C)(C)C)C1=O,4.91 µM,7.18 µM,4.76 µM,
COc1ccc(/C=C\c2cc(OC)c(OC)c(OC)c2)cc1O [COMBRETASTATIN A4],,,,Activity [14]: 1.55%; Activity [15]: 10.22%; viability at 1 µM [16]: 79.8%; Activity [17]: 9.19%; Activity [18]: 39.37%; Activity [19]: 8.43%; Activity [20]: 55.89%
C#CCNC1=C(F)C(=O)C(NCC#C)=C(c2c(C)[nH]c3ccccc23)C1=O,14.2 µM,15.5 µM,5.21 µM,
Cc1[nH]c2ccccc2c1C1=C(F)C(=O)C(F)=C(N2CCNCC2)C1=O,8.15 µM,4.65 µM,12.5 µM,
Cc1[nH]c2ccccc2c1C1=C(N2CCCCC2)C(=O)C(F)=C(N2CCCCC2)C1=O,4.22 µM,4.41 µM,6.8 µM,

# Continued, in another order:
IC50 [1],IC50 [2],IC50 [3],Structure (SMILES),other results
10.5 µM,7.96 µM,4.46 µM,Cc1[nH]c2ccccc2c1C1=C(F)C(=O)C(F)=C(NC2CC2)C1=O,
8.13 µM,7.4 µM,12.1 µM,Cc1[nH]c2ccccc2c1C1=C(N2CCN(C=O)CC2)C(=O)C(F)=C(N2CCN(C=O)CC2)C1=O,
11.3 µM,> 100 µM,10.8 µM,Cc1[nH]c2ccccc2c1C1=C(N2CCOCC2)C(=O)C(c2c(C)[nH]c3ccccc23)=C(N2CCOCC2)C1=O,
12.4 µM,8.57 µM,14.2 µM,Cc1[nH]c2ccccc2c1C1=C(F)C(=O)C(F)=C(F)C1=O,
61.4 µM,13.5 µM,> 100 µM,COC(=O)/C=C/C(=O)OCCCN1CCN(C2=C(F)C(=O)C(c3c(C)[nH]c4ccccc34)=C(N3CCN(CCCOC(=O)/C=C/C(=O)OC)CC3)C2=O)CC1,
7.78 µM,4.27 µM,14.2 µM,Cc1[nH]c2ccccc2c1C1=C(F)C(=O)C(N2CCOCC2)=C(F)C1=O,
6.43 µM,6.14 µM,> 100 µM,C#CCNC1=C(F)C(=O)C(F)=C(c2c(C)[nH]c3ccccc23)C1=O,
12.4 µM,8.9 µM,10.2 µM,Cc1[nH]c2ccccc2c1C1=C(F)C(=O)C(c2c(C)[nH]c3ccccc23)=C(N2CCOCC2)C1=O,
50.6 µM,7.82 µM,> 100 µM,C#CCNC1=C(F)C(=O)C(c2c(C)[nH]c3ccccc23)=C(F)C1=O,
